Measured values as given in US11993664B2, “Crystalline form of compound and uses thereof in medicine” (priority 2018, dated 2024).
Values joined by “and” are separate entries in the source; they are usually repeats but may differ in a detail not shown here. Identical values can stand only once. Like-named read-outs stand apart in the source and are kept apart here.

What was measured:
physchem = assay type: physicochemical; settings: water, thermodynamic from solid
Protocol: Agilent 1100 HPLC was utilized to measure solubility and purity, method listed in Table 4 and Table 5, respectively.
Solubility of the crystalline form A was estimated in six solvents at RT. Approximately 2 mg of solids were weighed into each 3-mL glass vial, to which each of the solvents in Table 8 was added in increments of 100 μL until the solids dissolved completely or the total volume reached 2 mL.

[1] = Heating experiments with HPLC purity of heated samples; assay type: physicochemical
Protocol: Agilent 1100 HPLC was utilized to measure solubility and purity, method listed in Table 4 and Table 5, respectively. To figure out if a different crystal form of freebase existed at elevated temperature as shown by two endothermic peaks in DSC curve in FIG. 2, heating experiments of the crystalline form A were conducted and HPLC purity of heated samples was also detected. […] Also, lower purity at 150° C. compared with 160° C. was speculated to be related to increasing isothermal time.

[2] = Stress testing under high temperature (60° C.); assay type: physicochemical; settings: for Purity / Change of purity in the high temperature test: 60° C.
[3] = Stress testing under high photolysis (4500 Lux); assay type: physicochemical
[4] = set-up: species or system beagle dogs; settings: dog
Protocol: Pharmacokinetic test of compounds in beagle dogs (weigh: 10-12 kg, male, age: 10-12 months, three members in each oral group and intravenous group) was shown as follows.
Beagle dogs received test compounds at a dose of 2.5 mg/kg or 5 mg/kg by oral gavage or at a dose of 1 mg/kg or 2 mg/kg by intravenous injection.
Blood samples of vein were taken at 0.083, 0.25, 0.5, 1, 2, 4, 6, 8 and 24 hours after the administration, and collected in anticoagulation tube with EDTA-K2. The test compounds were extracted from plasma samples by liquid-liquid extraction. Then quantitative analysis was performed on a triple-quadrupole tandem mass spectrometer using multiple reaction monitoring (MRM). Pharmacokinetic parameters were calculated using a noncompartmental method by WinNonLin 6.3 software.

[5] = set-up: species or system ICR mice; settings: mouse
Protocol: Pharmacokinetic test of compounds in mice (weigh: 20-25 g, male, age: 45-60 days, three members in each oral group and intravenous group) was shown as follows.
ICR mice received test compounds at a dose of 10 mg/kg by oral gavage or at a dose of 2 mg/kg or 10 mg/kg by tail intravenous injection. Blood samples of orbital vein were taken at 0.083, 0.25, 0.5, 1, 2, 4, 6, 8 and 24 hours after the administration, and collected in anticoagulation tube with EDTA-K2. The test compounds were extracted from plasma samples by liquid-liquid extraction. Then quantitative analysis was performed on a triple-quadrupole tandem mass spectrometer using multiple reaction monitoring (MRM). Pharmacokinetic parameters were calculated using a noncompartmental method by WinNonLin 6.1 software.

[6] = set-up: species or system SD rats; settings: rat
Protocol: Pharmacokinetic test of compounds of the invention in SD rats (weigh: 200-250 g, male, age: 2-3 months, three members in each oral group and intravenous group) was shown as follows. Rats received test crystal form A at a dose of 2.5 mg/kg or 5 mg/kg by oral gavage or at a dose of 1 mg/kg by intravenous injection. Blood samples of vein were taken at 0.083, 0.25, 0.5, 1, 2, 5, 7 and 24 hours after the administration, and collected in anticoagulation tube with EDTA-K2. The test compounds were extracted from plasma samples by liquid-liquid extraction. Then quantitative analysis was performed on a triple-quadrupole tandem mass spectrometer using multiple reaction monitoring (MRM). Pharmacokinetic parameters were calculated using a noncompartmental method by WinNonLin 6.3 software.

[7] = test system: con 1b derived bi-cistronic replicon; experiment: HCV replicon assay, con 1b bi-cistronic replicon; assay type: cell-based; settings: Hepatitis C virus, LUC endpoint, 72 hours
Excerpt: (§1) The purpose of this study was to assess the potential anti-HCV activity of SCY-635 (free base crystalline form A) in the well-characterized genotype-1 replicon. The first reproducible HCV replication system in cell culture (Huh7 hepatoma cell line) was reported in 1999 (Lohmann et al., 1999). The assay utilizes bi-cistronic subgenomic viral RNAs, or replicons, that encode nonstructural proteins and have the cis RNA elements required for autonomous replication. Replicons are self-replicating RNA molecules that contain all of the nucleotide sequences required for HCV replication, transcription, and translation, but are not infectious.
(§2) SCY-635 (free base crystalline form A) was studied in the HCV Replicon assay to evaluate its ability to inhibit HCV genomic replication. […]
(§3) The compound was dissolved in dimethyl sulfoxide (DMSO) and diluted into culture medium at five half-log concentrations, ranging from either 0.02 to 2.0 μM (for SCY-635), or 0.2 to 20 μM (for CsA). […] EC50 and EC90 values were derived from HCV RNA levels assessed as HCV RNA replicon derived LUC activity. […] IC50 and IC90 values were calculated using a colorimetric assay as an indication of cell numbers and cytotoxicity. […]

[8] = test system: con 1b derived full length replicon; experiment: HCV replicon assay, con 1b full length replicon; assay type: cell-based; settings: Hepatitis C virus
[9] = test system: H77 replicon (genotype 1a); experiment: HCV replicon assay, H77 replicon; assay type: cell-based; settings: Hepatitis C virus
Excerpt: as §1, §2, §3

[10] = test system: human hepatoma cell line ET (lub ubi neo/ET); experiment: Cytotoxicity in the replicon assay (colorimetric assay of cell numbers); settings: replicon cells, 72 hours
Excerpt: SCY-635 (free base crystalline form A) was examined in the human hepatoma cell line ET (lub ubi neo/ET), an HCV RNA replicon containing a stable luciferase (LUC) reporter. The HCV RNA replicon ET contains the 5′ end of HCV (with the HCV Internal Ribosome Entry Site (IRES) and the first few amino acids of the HCV core protein) which drives the production of a firefly luciferase (LUC), ubiquitin, and neomycin phosphotransferase (NeoR) fusion protein. Ubiquitin cleavage releases the LUC and NeoR proteins. The EMCV IRES element controls the translation of the HCV […] NS3-NS5. The NS3 protein cleaves the HCV polyprotein to release the mature NS3, NS4A, NS4B, NS5A and NS5B proteins that are required for HCV replication. The 3′ end of the replicon contains the authentic 3′ NTR of HCV. […]
as §3

[11] = monkey, in vivo
[12] = in vivo
cyclophilin A = cyclophilin A (Homo sapiens, UniProt P62937); settings: background statement; cited from earlier work
[13] = heated to 150 °C, isothermal 20 min
[14] = heated to 160 °C, isothermal 3 min
[15] = heated to 170 °C, isothermal 2 min
[16] = heated to 180 °C, isothermal 3 min
[17] = day 0, listed as The crystalline form A of SCY-635 free base
[18] = listed as crystalline form A of SCY-635 free base

cyclophilin A, sequence (P62937 whole entry, species assumed): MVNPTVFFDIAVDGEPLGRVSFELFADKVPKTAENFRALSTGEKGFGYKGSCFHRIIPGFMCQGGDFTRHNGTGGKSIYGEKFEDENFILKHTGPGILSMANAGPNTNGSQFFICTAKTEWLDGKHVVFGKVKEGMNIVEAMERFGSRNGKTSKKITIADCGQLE

With `C/C=C/C[C@@H](C)[C@@H](O)[C@H]1C(=O)N[C@@H](CC)C(=O)N(C)[C@H](SCCN(C)C)C(=O)N(C)[C@@H](CC(C)(C)O)C(=O)N[C@@H](C(C)C)C(=O)N(C)[C@@H](CC(C)C)C(=O)N[C@@H](C)C(=O)N[C@H](C)C(=O)N(C)[C@@H](CC(C)C)C(=O)N(C)[C@@H](CC(C)C)C(=O)N(C)[C@@H](C(C)C)C(=O)N1C` [SCY-635 free base crystalline form A, (3 S,6S,9S,12R,15S,18S,21S,24S,27R,30S,33S)-27-((2-(dimethylamino)ethyl)thio)-30-ethyl-33-((1R,2R,E)-1-hydroxy-2-methylhex-4-en-1-yl)-24-(2-hydroxy-2-methylpropyl)-6,9,18-triisobutyl-3,21-diisopropyl-1,4,7,10,12,15,19,25,28-nonamethyl-1,4,7,10,13,16,19,22,25,28,31-undecaazacyc lotritriacontan-2,5,8,11,14,17,20,23,26,29,32-undecaone] the solubility (physchem) was under 1100 µg/mL, the Appearance [1, 13] was “Liquated” and the Purity [1, 13] was 95.6 Area %. For the same compound, the “Solid form after heating (XRPD)” value ([1]; heated to 160° C.) was “converted to be amorphous”, the Appearance [1, 14] was “Liquated” and the Purity [1, 14] was 97.6 Area %. The Appearance [1, 15] was “Liquated”, the Purity [1, 15] was 94.3 Area % and the Appearance [1, 16] was “Liquated”. For the same compound, the Purity [1, 16] was 88.3 Area %, the Purity ([1]; starting material, not heated) was 100.0 Area % and the Purity [2, 17] was 98.0%. The Purity ([2]; day 10, listed as The crystalline form A of SCY-635 free base) was 98.1%, the Purity ([2]; day 30) was 98.0% and the “Change of purity in the high temperature test” value [2, 18] was “not changed”. For the same compound, the “Total impurity and major impurities in stress testing” value ([2]; high temperature and photolysis conditions) was “did not increase”, the Purity [3, 17] was 98.0% and the Purity ([3]; day 30) was 98.0%. The “Change of purity in the high photolysis test” value [3, 18] was “not changed”, the “Pharmacokinetic properties in vivo” value [4] was “better pharmacokinetic properties” and the Oral bioavailability ([4]; in vivo, po) was “orally bioavailable”. For the same compound, the “Pharmacokinetic properties in vivo” value [5] was “better pharmacokinetic properties”, the Oral bioavailability ([5]; in vivo, po) was “orally bioavailable” and the “Pharmacokinetic properties in vivo” value [6] was “better pharmacokinetic properties”. For the same compound, the Oral bioavailability ([6]; in vivo, po) was “orally bioavailable”, the EC50 [7] was 100 nM and 0.132 µg/mL and the EC90 [7] was 350 nM and 0.463 µg/mL. For the same compound, the EC50 [8] was 170 nM and 0.225 µg/mL, the EC90 [8] was 690 nM and 0.912 µg/mL and the EC50 [9] was 0.198 µg/mL and 150 nM. For the same compound, the EC90 [9] was 1.38 µM and 1.82 µg/mL, the “Cell cytotoxicity in the replicon assay” value [10] was “absence of cell cytotoxicity” and the Oral bioavailability [11] was “orally bioavailable”. For the same compound, the Oral bioavailability ([12]; human, po) was “orally bioavailable” and the Pharmacokinetic behavior [12] was “dose-dependent pharmacokinetic behavior”.
For `C/C=C/C[C@@H](C)[C@@H](O)[C@H]1C(=O)N[C@@H](CC)C(=O)N(C)[C@H](SCCN(C)C)C(=O)N(C)[C@@H](CC(C)(C)O)C(=O)N[C@@H](C(C)C)C(=O)N(C)[C@@H](CC(C)C)C(=O)N[C@@H](C)C(=O)N[C@H](C)C(=O)N(C)[C@@H](CC(C)C)C(=O)N(C)[C@@H](CC(C)C)C(=O)N(C)[C@@H](C(C)C)C(=O)N1C` [SCY-635], the “Concentration inhibiting peptidyl prolyl isomerase (PPlase) catalytic activity” value (cyclophilin A) is listed as “low nanomolar”.
For `C/C=C/C[C@@H](C)[C@@H](O)[C@H]1C(=O)N[C@@H](CC)C(=O)N(C)[C@H](SCCN(C)C)C(=O)N(C)[C@@H](CC(C)(C)O)C(=O)N[C@@H](C(C)C)C(=O)N(C)[C@@H](CC(C)C)C(=O)N[C@@H](C)C(=O)N[C@H](C)C(=O)N(C)[C@@H](CC(C)C)C(=O)N(C)[C@@H](CC(C)C)C(=O)N(C)[C@@H](C(C)C)C(=O)N1C` [The amorphous form of SCY-635 free base], the “Change of purity in the high temperature test” value [2] was “continued to decrease”, the Purity ([2]; day 0) was 98.2% and the Purity ([2]; day 10) was 97.9%. For the same compound, the Purity ([2]; day 50) was 97.7%, the “Change of purity in the high photolysis test” value [3] was “continued to decrease” and the Purity ([3]; day 0) was 98.2%. It also gave a Purity ([3]; day 10) of 98.1% and a Purity ([3]; day 50) of 98.0%.
